Experimental data published in patent US20050004218A1, “Vaccenic acid” (priority 2003, published 2005).

How the values were obtained:
[1] = system: mammary tumors; experiment: Bioassay of mammary cancer prevention (MNU-induced mammary carcinogenesis); assay type: in vivo, Female Sprague-Dawley rats; details: CLA 0.05-0.37% (treatments A-D); vaccenic acid 0.73-1.6% (treatments E-G)
Protocol: (§1) Protocol of animal treatment. Female Sprague-Dawley rats were purchased from Charles River Breeding Laboratories (Raleigh, N.C.) at 45 days of age and all subsequent procedures were approved by Roswell Park Cancer Institute Animal Care and Use Committee. Rats were fed the AIN-76 basal diet for 1 week to acclimatize them to the powdered diet. All animals were injected with a single dose of methylnitrosourea (MNU: 50 mg/kg body weight) intraperitoneally at 52 days of age for the induction of mammary tumors. Immediately after MNU administration, a total of 210 rats were divided into 7 groups of 30 each and maintained on different dietary treatments for the following 24 weeks. Throughout this period, rats were palpated weekly to determine the appearance, size, and location of mammary tumors. The experiment was terminated at 24 weeks after MNU administration. All tumors were excised and fixed for histological examination and only confirmed carcinomas are reported in data summaries. Randomly-selected subsets of nine rats from each treatment were necropsied. The tumor-free inguinal mammary fat pad, a portion of the liver, and plasma were retrieved. […]
(§2) Statistical analyses. Fatty acid composition data were analyzed statistically by the General Linear Model procedure of SAS (SAS Inc., Cary, N.C.). […]

[2] = Fatty acid analysis of liver, plasma and mammary fat pad lipids (Example 1); assay type: in vivo, Female Sprague-Dawley rats
Protocol: as §1, with “administration.” for “administration. All tumors were excised and fixed for histological examination and only confirmed carcinomas are reported in data summaries. Randomly-selected subsets of nine rats from each treatment were necropsied. The tumor-free inguinal mammary fat pad, a portion of the liver, and plasma were retrieved.”
Fatty acid analysis. […] However, because these typically yielded far less lipid, quantities of all reagents for methylation were adjusted to compensate for the reduced yield.
Fatty acid methyl esters were analyzed by gas chromatography (Hewlett Packard GC system 6890+with flame ionization detector) using a CP-Sil 88 capillary column (100 m×0.25 mm i.d. with 0.2 μm film thickness; Varian Inc.). […]
as §2

Row | Tissue and plasma concentrations of vaccenic acid with increasing intake (in words) ([2]; FIG. 1) | Content of cis-9, trans-11 CLA within each tissue with increasing supply of vaccenic acid (in words) ([2]; liver, plasma, mammary fat pad, FIG. 3) | SMILES | Effect of increasing dietary intake on tumor incidence (in words) [1]
1 | – | – | CCCCCC/C=C/C=C\CCCCCCCC(=O)O [cis-9, trans-11 CLA, cis-9, trans-11 octadecadienoic acid, reference compound] | the decrease was not statistically significant
2 | increased | linearly increased | CCCCCC/C=C/CCCCCCCCCC(=O)O [vaccenic acid, trans-11 octadecenoic acid] | distinct inhibitory response to vaccenic acid which was dose-dependent
